Biological target: T1, hCCR4 (Homo sapiens, UniProt P51679)
T1 sequence (P51679 1-360): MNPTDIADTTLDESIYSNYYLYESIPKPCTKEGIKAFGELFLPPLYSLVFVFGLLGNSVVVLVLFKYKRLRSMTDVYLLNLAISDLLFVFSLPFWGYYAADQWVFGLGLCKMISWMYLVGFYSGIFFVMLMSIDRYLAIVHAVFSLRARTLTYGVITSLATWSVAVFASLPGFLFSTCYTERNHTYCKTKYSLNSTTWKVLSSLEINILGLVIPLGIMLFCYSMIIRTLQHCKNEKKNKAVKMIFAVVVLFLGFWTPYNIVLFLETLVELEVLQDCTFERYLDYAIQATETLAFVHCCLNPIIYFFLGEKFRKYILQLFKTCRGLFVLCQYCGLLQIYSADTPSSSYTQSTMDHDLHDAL
Experiment: Calcium flux assay
Type: cell-based
Settings: Chem5-hCCR4 cells, CCL22 at EC80 of 1.5 nM, FLIPR Calcium 6 dye; read-out: Potency (IC50)
Method: Calcium Flux Assay. Compounds were evaluated in a calcium flux assay substantially performed as follows. Chem5-hCCR4 cells (EMD Millipore, Hayward, Calif.; HTS009C) were cultured under standard conditions and frozen in aliquots of 10×10^6 cells/mL. The day prior to compound testing, a vial was rapidly thawed and pipetted into 20 mL media (DMEM+10% FBS+1% Pen-Strep+1% L-glutamine). Cells were harvested by centrifugation and re-suspended in fresh culture medium. 25 μL of cell suspension was seeded into 384-well plates (Corning, Tewksbury, Mass.; CellBind with black wall/clear bottom). The plates were centrifuged at 300 g for 10 seconds and incubated overnight at 37° C. and 5% CO2. The day of compound testing, media was removed from the plates and 25 μL serum free media was added to each well. Plates were returned to the incubator for 2 h. 25 μL assay buffer (Hank's balanced salt solution+20 mM HEPES pH 7.4) containing FLIPR Calcium 6 dye (Molecular Devices, Sunnyvale, Calif.; # R8191) and probenecid (2.5 mM) was added to each well and incubated at 37° C. and 5% CO2 for 2 h. Compounds in DMSO were added to the plates using an HP D300e digital dispenser, and all wells were normalized to contain 0.25 μL (0.5%) DMSO. Plates were incubated for 1 hour at 37° C. and 5% CO2. CCL22 (Peprotech; Rockyhill, N.J.) was diluted in assay buffer containing 0.1% BSA to 7.5 nM (corresponding to 5×EC80 of 1.5 nM).
Assay plates and working solution of CCL22 were transferred to the FlexStation plate reader (Molecular Devices) at 37° C. for 5 min of equilibration. Fluorescence recordings at 485 excitation/525 emission were performed at 2.5 second intervals. At t=16 seconds, 12.5 μL of CCL22 solution was added to each well and reads continued for 30 seconds at 2.5 second intervals. The minimum fluorescence (Fmin) was calculated by averaging the reads prior to ligand addition and the change in fluorescence (ΔF) was calculated by subtracting the Fmin from the average of the reads following ligand addition. The response ΔF/Fmin was plotted as a function of the compound concentration and the IC50 values were determined by non-linear regression analysis using a 4-parameter fit in either PRISM software (GraphPad; La Jolla, Calif.) or Dotmatics Browser.

IC50 [nM]	Compound
100 to 500	C[C@H](c1ccc(Cl)cc1Cl)n1nc(C(F)(F)F)c2ncc(N3CC(C4CCCN(CCO)C4)C3)nc21 (mixture of isomers) [Example 42, 2-((R)-3-(1-(1-((R)-1-(2,4-Dichlorophenyl)ethyl)-3-(trifluoromethyl)-1H-pyrazolo[3,4-b]pyrazin-6-yl)azetidin-3-yl)piperidin-1-yl)ethan-1-ol and 2-((S)-3-(1-(1-((R)-1-(2,4-dichlorophenyl)ethyl)-3-(trifluoromethyl)-1H-pyrazolo[3,4-b]pyrazin-6-yl)azetidin-3-yl)piperidin-1-yl)ethan-1-ol]
100 to 500	CC(=O)NCCN1CCCC(C2CN(c3cnc4c(C(F)(F)F)nn([C@H](C)c5ccc(Cl)cc5Cl)c4n3)C2)C1 (mixture of isomers) [Example 45, N-(2-((R)-3-(1-(1-((R)-1-(2,4-Dichlorophenyl)ethyl)-3-(trifluoromethyl)-1H-pyrazolo[3,4-b]pyrazin-6-yl)azetidin-3-yl)piperidin-1-yl)ethyl)acetamide and N-(2-((S)-3-(1-(1-((R)-1-(2,4-dichlorophenyl)ethyl)-3-(trifluoromethyl)-1H-pyrazolo[3,4-b]pyrazin-6-yl)azetidin-3-yl)piperidin-1-yl)ethyl)acetamide]
100 to 500	C[C@H](c1ccc(Cl)cc1Cl)n1nc(C(F)(F)F)c2ncc(N3CC(C4CCCN(CCNS(C)(=O)=O)C4)C3)nc21 (mixture of isomers) [Example 46, N-(2-((R)-3-(1-(1-((R)-1-(2,4-Dichlorophenyl)ethyl)-3-(trifluoromethyl)-1H-pyrazolo[3,4-b]pyrazin-6-yl)azetidin-3-yl)piperidin-1-yl)ethyl)methanesulfonamide and N-(2-((S)-3-(1-(1-((R)-1-(2,4-dichlorophenyl)ethyl)-3-(trifluoromethyl)-1H-pyrazolo[3,4-b]pyrazin-6-yl)azetidin-3-yl)piperidin-1-yl)ethyl)methanesulfonamide]
< 100	CC(C)S(=O)(=O)NCCN1CCCC(C2CN(c3cnc4c(C(F)(F)F)nn([C@H](C)c5ccc(Cl)cc5Cl)c4n3)C2)C1 (mixture of isomers) [Example 47, N-(2-((R)-3-(1-(1-((R)-1-(2,4-Dichlorophenyl)ethyl)-3-(trifluoromethyl)-1H-pyrazolo[3,4-b]pyrazin-6-yl)azetidin-3-yl)piperidin-1-yl)ethyl)propane-2-sulfonamide and N-(2-((S)-3-(1-(1-((R)-1-(2,4-dichlorophenyl)ethyl)-3-(trifluoromethyl)-1H-pyrazolo[3,4-b]pyrazin-6-yl)azetidin-3-yl)piperidin-1-yl)ethyl)propane-2-sulfonamide]
< 100	CC(C)C(=O)NCCN1CCCC(C2CN(c3cnc4c(C(F)(F)F)nn([C@H](C)c5ccc(Cl)cc5Cl)c4n3)C2)C1 (mixture of isomers) [Example 48, N-(2-((R)-3-(1-(1-((R)-1-(2,4-Dichlorophenyl)ethyl)-3-(trifluoromethyl)-1H-pyrazolo[3,4-b]pyrazin-6-yl)azetidin-3-yl)piperidin-1-yl)ethyl)isobutyramide and N-(2-((S)-3-(1-(1-((R)-1-(2,4-dichlorophenyl)ethyl)-3-(trifluoromethyl)-1H-pyrazolo[3,4-b]pyrazin-6-yl)azetidin-3-yl)piperidin-1-yl)ethyl)isobutyramide]
< 100	COC(=O)NCCN1CCCC(C2CN(c3cnc4c(C(F)(F)F)nn([C@H](C)c5ccc(Cl)cc5Cl)c4n3)C2)C1 (mixture of isomers) [Example 49, Methyl (2-((R)-3-(1-(1-((R)-1-(2,4-dichlorophenyl)ethyl)-3-(trifluoromethyl)-1H-pyrazolo[3,4-b]pyrazin-6-yl)azetidin-3-yl)piperidin-1-yl)ethyl)carbamate and methyl (2-((S)-3-(1-(1-((R)-1-(2,4-dichlorophenyl)ethyl)-3-(trifluoromethyl)-1H-pyrazolo[3,4-b]pyrazin-6-yl)azetidin-3-yl)piperidin-1-yl)ethyl)carbamate]
< 100	C[C@H](c1ccc(Cl)cc1Cl)n1nc(C(F)(F)F)c2ncc(N3CC(C4CCCN(CCCS(C)(=O)=O)C4)C3)nc21 (mixture of isomers) [Example 50, 1-((R)-1-(2,4-Dichlorophenyl)ethyl)-6-(3-((R)-1-(3-(methylsulfonyl)propyl)piperidin-3-yl)azetidin-1-yl)-3-(trifluoromethyl)-1H-pyrazolo[3,4-b]pyrazine and 1-((R)-1-(2,4-dichlorophenyl)ethyl)-6-(3-((S)-1-(3-(methylsulfonyl)propyl)piperidin-3-yl)azetidin-1-yl)-3-(trifluoromethyl)-1H-pyrazolo[3,4-b]pyrazine]
< 100	C[C@H](c1ccc(Cl)cc1Cl)n1nc(C#N)c2ncc(N3CC(C4CCCN(CCCC(C)(C)O)C4)C3)nc21 (mixture of isomers) [Example 56, 1-((R)-1-(2,4-dichlorophenyl)ethyl)-6-(3-((S)-1-(4-hydroxy-4-methylpentyl)piperidin-3-yl)azetidin-1-yl)-1H-pyrazolo[3,4-b]pyrazine-3-carbonitrile and 1-((R)-1-(2,4-dichlorophenyl)ethyl)-6-(3-((R)-1-(4-hydroxy-4-methylpentyl)piperidin-3-yl)azetidin-1-yl)-1H-pyrazolo[3,4-b]pyrazine-3-carbonitrile]
< 100	CNS(=O)(=O)CCN1CCCC(C2CN(c3cnc4c(C#N)nn([C@H](C)c5ccc(Cl)cc5Cl)c4n3)C2)C1 (mixture of isomers) [Example 57, 2-(S)-3-(1-(3-cyano-1-((R)-1-(2,4-dichlorophenyl)ethyl)-1H-pyrazolo[3,4-b]pyrazin-6-yl)azetidin-3-yl)piperidin-1-yl)-N-methylethane-1-sulfonamide and 2-((R)-3-(1-(3-cyano-1-((R)-1-(2,4-dichlorophenyl)ethyl)-1H-pyrazolo[3,4-b]pyrazin-6-yl)azetidin-3-yl)piperidin-1-yl)-N-methylethane-1-sulfonamide]
100 to 500	C[C@H](c1ccc(Cl)cc1Cl)n1nc(C#N)c2ncc(N3CC(C4CCCN(CCS(=O)(=O)N5CCOCC5)C4)C3)nc21 (mixture of isomers) [Example 58, 1-((R)-1-(2,4-dichlorophenyl)ethyl)-6-(3-((S)-1-(2-(morpholinosulfonyl)ethyl)piperidin-3-yl)azetidin-1-yl)-1H-pyrazolo[3,4-b]pyrazine-3-carbonitrile and 1-((R)-1-(2,4-dichlorophenyl)ethyl)-6-(3-((R)-1-(2-(morpholinosulfonyl)ethyl)piperidin-3-yl)azetidin-1-yl)-1H-pyrazolo[3,4-b]pyrazine-3-carbonitrile]
< 100	C[C@H](c1ccc(Cl)cc1Cl)n1nc(C#N)c2ncc(N3CC(C4CCCN(Cc5cc[nH]n5)C4)C3)nc21 (mixture of isomers) [Example 59, 6-(3-((S)-1-((1H-pyrazol-3-yl)methyl)piperidin-3-yl)azetidin-1-yl)-1-((R)-1-(2,4-dichlorophenyl)ethyl)-1H-pyrazolo[3,4-b]pyrazine-3-carbonitrile and 6-(3-((R)-1-((1H-pyrazol-3-yl)methyl)piperidin-3-yl)azetidin-1-yl)-1-((R)-1-(2,4-dichlorophenyl)ethyl)-1H-pyrazolo[3,4-b]pyrazine-3-carbonitrile]
< 100	C[C@H](c1ccc(Cl)cc1Cl)n1nc(C#N)c2ncc(N3CC(C4CCCN(Cc5c[nH]cn5)C4)C3)nc21 (mixture of isomers) [Example 60, 6-(3-((S)-1-(1H-imidazol-4-yl)methyl)piperidin-3-yl)azetidin-1-yl)-1-((R)-1-(2,4-dichlorophenyl)ethyl)-1H-pyrazolo[3,4-b]pyrazine-3-carbonitrile and 6-(3-((R)-1-((1H-imidazol-4-yl)methyl)piperidin-3-yl)azetidin-1-yl)-1-((R)-1-(2,4-dichlorophenyl)ethyl)-1H-pyrazolo[3,4-b]pyrazine-3-carbonitrile]

From patent publication US10604526B2, “Chemokine receptor modulators and uses thereof” (RAPT THERAPEUTICS, INC., priority 2016, dated 2020)
